{
  "source": "patent US7750043B2",
  "about": "“Modified retinoid compounds and their uses” (Wisconsin Alumni Research Foundation, priority 2003, dated 2010)",
  "key": {"[1]": {"tested_on": "normal male rats", "assay": "Acute toxicity of atRA versus t-butyl-RA in normal male rats", "format": "in vivo, rat", "settings": "for body weight change / apparent toxicity: second study, 1 mmole/kg/day for 5 days, FIG. 6", "description": "Two independent toxicity studies were carried out with the t-butyl-RA derivative. […] However, the difference in testes weights between the atRA and t-butyl-RA groups was not statistically significant due to rather large biological variability.\nWe next examined the acute toxicity of the t-butyl derivative as compared to the atRA derivative in two independent trails. In these experiments, normal male rats weighing approximately 250-300 grams were used. They were individually housed in cages and given Purina lab chow as well as water ad libitum. […] This is an extremely large dose, and represents at least 3,600 times the amount of the t-butyl derivative needed to support a physiological growth response in vitamin A-deficient rats. […] Another indication of toxicity is testes weight as illustrated in FIG. 7."}, "[2]": {"tested_on": "pregnant rats (embryos)", "settings": "female, Sprague Dawley, rat, in vivo, 18.5 embryonic day", "text": "Teratogenic activity of atRA is a serious drawback in its therapeutic potential. […] The results of this experiment illustrate that atRA is, indeed, teratogenic and that the t-butyl derivative shares this liability, but only when given at a dose of 10 times higher than that of atRA. Thus, there is a larger window of safety when using the t-butyl-RA derivative when compared to atRA.\nIn this experiment, 19 female rats were obtained from Sprague Dawley and were individually housed in cages and given purina chow as well as water ad libitum. After approximately two weeks of acclimation to the animal facility, the females were placed with normal males on the same diet, between 6:00 and 9:00 pm. The following morning, the females were checked for vaginal plugs indicating fertilization. Vaginal smears were then checked for sperm and when shown to be positive, the pregnant rat was placed in the study. At embryonic day 12.3 between 9:00 and 10:00 in the morning, the rats received the following treatments given as a bolus dose in oil orally. Four groups of rats received the vehicle; four received 0.1 mmole/kg (30 mg/kg) atRA in the oil vehicle; another group received an equal molar amount (35.7 mg/kg) of t-butyl-RA; and a final group received a ten-fold higher dose (357 mg/kg) of t-butyl-RA. The embryos were removed by cesarean section on day 18.5 and weighed as well as checked for cleft palette. […]"}, "[3]": {"tested_on": "vitamin A-deficient rats", "assay": "Growth of vitamin A-deficient rats given the compounds orally in Wesson oil", "format": "in vivo, rat", "settings": "for growth (weight change) of vitamin A-deficient rats compared to atRA: 83 pmoles/day oral in Wesson oil, FIG. 1; for growth (weight change) of vitamin A-deficient rats compared to atRA / growth response of vitamin A-deficient rats compared to atRA / growth of vitamin A-deficient rats compared to vehicle control / growth of vitamin A-deficient rats, comparison between atRA and its esters: 5 days; for growth response of vitamin A-deficient rats compared to atRA: 166 pmoles/day (50 μg/day atRA or 59.5 μg/day t-butyl-RA), FIG. 2; for in vivo activity relative to atRA (growth support): oral, vitamin A-deficient rats, overall estimate; for growth of vitamin A-deficient rats compared to vehicle control / growth of vitamin A-deficient rats, comparison between atRA and its esters: 83 pmole/day, FIG. 4", "text": "The first test was to determine if the esterified compounds when given orally could restore normal growth of vitamin A-deficient rats. For this study, Sprague-Dawley, weanling rats were obtained from Harlan (Indianapolis, Ind.). They were fed the purified vitamin A-deficient diet previously described (Suda et al., 1970, J. Nutr. 100:1049-152) supplemented with vitamins D, E and K (White et al., 1998, Proc. Natl. Acad. Sci. USA 95:13459-13464). When the animals stopped growing and began to lose weight, they were administered the indicated doses per day dissolved in Wesson oil. Controls were given the Wesson oil alone (vehicle group). The weight change over the 5-day study period was analyzed by ANOVA, followed by a matrix of pairwise comparison probabilities using four post-hoc tests when the overall P value was less than 0.05. The post-hoc comparison tests included: Turkey HSD multiple comparisons, Sheffe test, Fisher's least-significant-difference test and the Bonferroni adjustment test.\nWeanling male rats were obtained from the Harlan Company and were housed individually in hanging wire cages and fed the vitamin A-deficient diet described previously (Suda et al., 1970). At approximately 70 days of age, the animals began to show a leveling off of growth and began to show weight loss. At this time, they were used for the following studies: They were given either 0.1 ml of Wesson oil (vehicle) or the indicated dose of atRA dissolved in the vehicle or one of the derivatives at the indicated dose dissolved in the vehicle. Body weights were recorded daily and plotted as cumulative weight gain or loss over the study period as indicated on the graphs. A daily dose of 83 pmoles (25 μg/day) of atRA is near the minimum amount needed to produce normal growth in […] rats as compared to the vehicle controls that continue to lose weight (FIG. 1). […] When the dose was increased to 50 μg/day of atRA or 59.5 μg/day of the t-butyl derivative, as expected, the growth response was identical."}},
  "note": "Entries after “also recorded” stand apart in the source; their conditions may differ.",
  "data": [
    {"smiles": "CC1=C(/C=C/C(C)=C/C=C/C(C)=C/C(=O)OC(C)(C)C)C(C)(C)CCC1", "note": "[t-butyl-RA, all-trans-retinoic acid tert-butyl ester]", "values": [
      {"measurement": "non-toxic dose as multiple of the amount needed to support a physiological growth response", "setting": "[1]; 1 mmole/kg/day (357 mg/kg/day) versus growth dose in vitamin A-deficient rats", "result": "at least 3,600 times"},
      {"measurement": "testes weight", "setting": "[1]; 1 mmole/kg/day, FIG. 7, listed as t-butyl derivative", "result": "no such indication; also recorded: similar"},
      {"measurement": "body weight change", "setting": "[1]; first study, 1 mmole/kg/day (300 mg/kg/day atRA, 357 mg/kg/day t-butyl-RA), 7 days, FIG. 5", "result": "continued growth; also recorded: did not cause a weight loss"},
      {"measurement": "other signs of toxicity", "setting": "[1]; first study, 1 mmole/kg/day, 7 days, FIG. 5", "result": "no other externally obvious toxicity"},
      {"measurement": "body weight change / apparent toxicity", "setting": "[1]", "result": "no apparent toxicity"},
      {"measurement": "body weight change / apparent toxicity", "setting": "[1]; listed as t-butyl derivative", "result": "normal growth"},
      {"measurement": "dose relative to atRA required to produce equivalent teratogenic effects", "setting": "[2]", "result": 10},
      {"measurement": "times less teratogenic than atRA", "setting": "[2]", "result": "approximately 10 times"},
      {"measurement": "growth (weight change) of vitamin A-deficient rats compared to atRA", "setting": "[3]", "result": "did not differ significantly from that of the group fed an equal molar amount of atRA"},
      {"measurement": "growth (weight change) of vitamin A-deficient rats compared to atRA", "setting": "[3]; listed as t-butyl derivative", "result": "did not differ from that of atRA"},
      {"measurement": "growth response of vitamin A-deficient rats compared to atRA", "setting": "[3]", "result": "equivalent"},
      {"measurement": "growth response of vitamin A-deficient rats compared to atRA", "setting": "[3]; listed as t-butyl derivative", "result": "identical"},
      {"measurement": "in vivo activity relative to atRA (growth support)", "setting": "[3]", "result": "equal to atRA in potency and efficacy"},
      {"measurement": "in vivo activity relative to atRA (growth support)", "setting": "[3]; listed as t-butyl derivative", "result": "as active as atRA"},
      {"measurement": "in vivo activity relative to atRA (growth support)", "setting": "[3]; listed as t-butyrate ester", "result": "as active in vivo when given orally as is atRA"}
    ]},
    {"smiles": "CC1=C(/C=C/C(C)=C/C=C/C(C)=C/C(=O)OC(C)(C)C(C)(C)O)C(C)(C)CCC1", "note": "[pinacol ester, all-trans-retinoic acid pinacol ester]", "values": [
      {"measurement": "growth of vitamin A-deficient rats compared to vehicle control", "setting": "[3]", "result": "significantly enhanced growth compared to vehicle control animals"},
      {"measurement": "growth of vitamin A-deficient rats, comparison between atRA and its esters", "setting": "[3]", "result": "nearly equivalent to atRA"},
      {"measurement": "in vivo activity relative to atRA (growth support)", "setting": "[3]", "result": "nearly as active as atRA"}
    ]},
    {"smiles": "CC1=C(/C=C/C(C)=C/C=C/C(C)=C/C(=O)O[C@H]2CC[C@@]3(C)C(=CCC4C3CC[C@@]3(C)C4CC[C@@H]3[C@H](C)CCCC(C)C)C2)C(C)(C)CCC1", "note": "(stereo partly drawn) [cholesterol ester, all-trans-retinoic acid cholesterol ester]", "values": [
      {"measurement": "growth of vitamin A-deficient rats compared to vehicle control", "setting": "[3]", "result": "significantly enhanced growth compared to vehicle control animals; also recorded: clearly much improved over the vehicle control"},
      {"measurement": "growth of vitamin A-deficient rats, comparison between atRA and its esters", "setting": "[3]", "result": "less effective"},
      {"measurement": "in vivo activity relative to atRA (growth support)", "setting": "[3]", "result": "less effective; also recorded: one-third"}
    ]},
    {"smiles": "CC1=C(/C=C/C(C)=C/C=C/C(C)=C/C(=O)O)C(C)(C)CCC1", "note": "[atRA, all-trans-retinoic acid, reference compound]", "values": [
      {"measurement": "growth of vitamin A-deficient rats, comparison between atRA and its esters", "setting": "[3]", "result": "superior to that of the cholesterol ester-fed group"}
    ]}
  ]
}
